Assay [1] relates to Rattus norvegicus. As to the kind of experiment: Anticonvulsant activity in ip dosed albino Sprague-Dawley rat assessed as protection against pilocarpine-induced seizure treated after 30 mins of pilcarpine challenge. Format: functional. To be noted: 0.5 h.
Assay [2] has as its system Rattus norvegicus. As to the kind of experiment: Anticonvulsant activity in albino Sprague-Dawley rat assessed as protection against pilocarpine-induced seizure at 75 mg/kg, ip. Format: functional, organism-based. Further details: dose 75 mg/kg.
Assay [3] has as its system Mus musculus. Briefly: Antiepileptic activity in CF1 mouse assessed as inhibition of maximal electroshock-induced seizures at 30 mg/kg, ip after 4 hrs. The class given is functional, organism-based. The arrangement: dose 30 mg/kg. A general note: Protection in the maximal electroshock model is a classic sign of anticonvulsant action.
Assay [4] deals with Mus musculus. Briefly: Antiepileptic activity in CF1 mouse assessed as inhibition of maximal electroshock-induced seizures at 100 mg/kg, ip after 4 hrs. The arrangement: dose 100 mg/kg. Format: functional, organism-based.
The subject of assay [5] is Mus musculus. As to the kind of experiment: Neurotoxicity in CF1 mouse assessed as protection against motor impairment at 100 mg/kg, ip after 0.5 hrs by rotarod test. The class given is functional, organism-based. Further details: dose 100 mg/kg. Background: Falling from the rotarod earlier than controls is read as motor impairment.
The species entered for assay [6] is Rattus norvegicus. As to the kind of experiment: Ratio of ED50 for antiallodynic activity in rat assessed as protection against spinal nerve ligation-induced neuropathic pain to ED50 for antiepileptic activity in rat by maximal electroshock-induced seizures assay. The class given is functional.
The test system of assay [7] is Mus musculus. Briefly: Antiepileptic activity in CF1 mouse assessed as inhibition of subcutaneous pentylenetetrazole-induced seizures at 30 mg/kg, ip after 0.5 hrs. Further details: dose 30 mg/kg. Format: functional, organism-based.
In assay [8] the test system is Mus musculus. As to the kind of experiment: Antiepileptic activity in CF1 mouse assessed as inhibition of subcutaneous pentylenetetrazole-induced seizures at 100 mg/kg, ip after 0.5 hrs. The class given is functional, organism-based. Further details: dose 100 mg/kg.
For assay [9], the system named is Mus musculus. As to the kind of experiment: Antiepileptic activity in CF1 mouse assessed as inhibition of maximal electroshock-induced seizures at 300 mg/kg, ip after 0.5 hrs. Format: functional, organism-based. The arrangement: dose 300 mg/kg.
Assay [10] has as its system Mus musculus. Briefly: Antiepileptic activity in CF1 mouse assessed as inhibition of subcutaneous pentylenetetrazole-induced seizures at 300 mg/kg, ip after 0.5 hrs. The class given is functional, organism-based. The arrangement: dose 300 mg/kg.
Assay [11] relates to Rattus norvegicus. As to the kind of experiment: Antiallodynic activity in ip dosed rat assessed as protection against spinal nerve ligation-induced neuropathic pain. The class given is functional.
Assay [12] concerns Mus musculus. Briefly: Antiepileptic activity in CF1 mouse assessed as inhibition of subcutaneous pentylenetetrazole-induced seizures at 300 mg/kg, ip after 4 hrs. Format: functional, organism-based. Further details: dose 300 mg/kg.
Assay [13] relates to Mus musculus. Briefly: Antiepileptic activity in CF1 mouse assessed as inhibition of subcutaneous pentylenetetrazole-induced seizures at 30 mg/kg, ip after 4 hrs. The class given is functional, organism-based. Further details: dose 30 mg/kg.
The test system of assay [14] is Mus musculus. Briefly: Neurotoxicity in CF1 mouse assessed as protection against motor impairment at 30 mg/kg, ip after 4 hrs by rotarod test. The class given is functional, organism-based. The arrangement: dose 30 mg/kg.
Assay [15] concerns Mus musculus. Briefly: Antiepileptic activity in CF1 mouse assessed as inhibition of maximal electroshock-induced seizures at 30 mg/kg, ip after 0.5 hrs. The class given is functional, organism-based. The arrangement: dose 30 mg/kg.
In assay [16] the test system is Mus musculus. Briefly: Neurotoxicity in CF1 mouse assessed as protection against motor impairment at 100 mg/kg, ip after 4 hrs by rotarod test. Format: functional, organism-based. The arrangement: dose 100 mg/kg.
The subject of assay [17] is Mus musculus. As to the kind of experiment: Antiepileptic activity in CF1 mouse assessed as inhibition of maximal electroshock-induced seizures at 100 mg/kg, ip after 0.5 hrs. Format: functional, organism-based. Further details: dose 100 mg/kg.
The subject of assay [18] is Mus musculus. As to the kind of experiment: Neurotoxicity in CF1 mouse assessed as protection against motor impairment at 300 mg/kg, ip after 4 hrs by rotarod test. Format: functional, organism-based. The arrangement: dose 300 mg/kg.
Assay [19] relates to Mus musculus. As to the kind of experiment: Antiepileptic activity in CF1 mouse assessed as inhibition of maximal electroshock-induced seizures at 300 mg/kg, ip after 4 hrs. Format: functional, organism-based. The arrangement: dose 300 mg/kg.
The subject of assay [20] is Rattus norvegicus. Briefly: Anticonvulsant activity in albino Sprague-Dawley rat assessed as protection against pilocarpine-induced seizure at 37.5 mg/kg, ip. The class given is functional, organism-based. Further details: dose 37.5 mg/kg.
Assay [21] concerns Mus musculus. As to the kind of experiment: Neurotoxicity in CF1 mouse assessed as protection against motor impairment at 300 mg/kg, ip after 0.5 hrs by rotarod test. Format: functional, organism-based. Further details: dose 300 mg/kg.
Assay [22] has as its system Mus musculus. As to the kind of experiment: Antiepileptic activity in CF1 mouse assessed as inhibition of subcutaneous pentylenetetrazole-induced seizures at 100 mg/kg, ip after 4 hrs. The arrangement: dose 100 mg/kg. The class given is functional, organism-based.
The test system of assay [23] is Mus musculus. Briefly: Antiepileptic activity in ip dosed CF1 mouse assessed as inhibition of subcutaneous pentylenetetrazole-induced seizures. Format: functional.
The test system of assay [24] is Mus musculus. Briefly: Neurotoxicity in CF1 mouse assessed as protection against motor impairment at 30 mg/kg, ip after 0.5 hrs by rotarod test. Format: functional, organism-based. The arrangement: dose 30 mg/kg.

The source made the active and inactive calls. No cut-off for these calls is given here.

Turning to `CCC(C)C(CC)C(=O)NC(N)=O` (configuration not stated) [CAPURIDE], the ED50 in the assay on Rattus norvegicus [1] was found to be 23 mg/kg; in the assay with Rattus norvegicus [11], 49 mg/kg. Also, the result in the assay with Rattus norvegicus [2], with Mus musculus [5], in the assay with Mus musculus [8], in the assay with Mus musculus [9], in the assay on Mus musculus [10] and with Mus musculus [12] was Active. Besides, the result in the assay on Mus musculus [17], with Mus musculus [18], with Mus musculus [19], in the assay with Rattus norvegicus [20] and in the assay with Mus musculus [21] was Active. Besides, the result in the assay on Mus musculus [3], in the assay with Mus musculus [4], in the assay with Mus musculus [7], in the assay on Mus musculus [13], in the assay with Mus musculus [14] and in the assay with Mus musculus [15] was inactive. Further, the outcome with Mus musculus [16] and with Mus musculus [22] was inactive. Also, in the assay listed under Rattus norvegicus [6], the ratio was 0.49.
In the case of `CCCCC(CC)C(N)=O` (configuration not stated), the result in the assay on Mus musculus [3], in the assay with Mus musculus [4], with Mus musculus [5], in the assay with Mus musculus [7], in the assay on Mus musculus [8] and in the assay with Mus musculus [13] was inactive. Moreover, the result in the assay on Mus musculus [14], with Mus musculus [24], with Mus musculus [15], in the assay with Mus musculus [16], in the assay on Mus musculus [19] and in the assay with Mus musculus [22] was inactive. Moreover, the ED50 in the assay with Mus musculus [23] is 103 mg/kg. Further, the result in the assay on Mus musculus [17] and in the assay with Mus musculus [21] was Active.

By ED50 is commonly meant the midpoint of the dose-response relation.
